Results published in BindingDB's records for doi:10.1073/pnas.0609412103 (Genomics Institute of The Novartis Research Foundation, 2007).

Assay: Inhibition of Tel-fused RON kinase-mediated mouse BaF3 cell proliferation

IC50: 1630 nM
Compound: COc1cc(N2CCC(N3CCN(C)CC3)CC2)ccc1Nc1ncc(Cl)c(Nc2ccccc2S(=O)(=O)C(C)C)n1 [TAE684]
